These results are taken from PubChem BioAssay (NCI).

Test systems include CAKI-1 renal; SK-MEL-2 melanoma; HS 578T breast; EKVX NSCLC; OVCAR-3 ovarian; MOLT-4 leukemia; SK-MEL-5 melanoma; ACHN renal; NCI-H460 lung; HCT-15 colon.
What all share (test): DTP human tumour cell line panel, 48 h

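All cell lines were grown in 96-well plates and treated with compound for 48 hours. At the GI50, growth is halved. Definition used: TGI = concentration required for complete inhibition of growth.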

Usually GI50 stands for the concentration giving 50% growth inhibition. In general, TGI refers to the concentration giving total growth inhibition. Lower therefore signals more potent growth arrest. Regarding `CC(C)(C)OC(=O)N(CCCn1c2c(c3ccccc3c1=O)C(=O)c1ccccc1-2)CCN(CCCn1c2c(c3ccccc3c1=O)C(=O)c1ccccc1-2)C(=O)OC(C)(C)C`, the GI50 in the experiment with CAKI-1 renal was 37.9 µM; in the experiment with SK-MEL-2 melanoma it was over 50 µM; in the experiment on HS 578T breast it was 15.8 µM; in the experiment with EKVX NSCLC it was over 50 µM; with OVCAR-3 ovarian, 13.2 µM; with MOLT-4 leukemia it was 4 µM. The GI50 with SK-MEL-5 melanoma was over 50 µM; in the experiment with ACHN renal it was 11.2 µM; in the experiment with NCI-H460 lung, 27.3 µM; in the experiment with HCT-15 colon, 24.2 µM. Further, the TGI is over 50 µM with CAKI-1 renal; over 50 µM in the experiment on SK-MEL-2 melanoma; over 50 µM in the experiment on HS 578T breast; over 50 µM in the experiment on EKVX NSCLC; over 50 µM in the experiment with OVCAR-3 ovarian; 16.1 µM in the experiment with MOLT-4 leukemia. Also, the total growth inhibition concentration (TGI) in the experiment on SK-MEL-5 melanoma is over 50 µM; in the experiment with ACHN renal, 48.9 µM; in the experiment with NCI-H460 lung, over 50 µM; in the experiment with HCT-15 colon, over 50 µM.

Turning to `COc1ccccc1NC(=O)N/C(N)=N/c1nc2ccccc2s1`, the GI50 in the experiment with CAKI-1 renal was 0.062 µM; in the experiment with SK-MEL-2 melanoma, 0.446 µM; with HS 578T breast, 0.0695 µM; in the experiment with EKVX NSCLC it was 0.409 µM; in the experiment on OVCAR-3 ovarian it was 0.0403 µM; in the experiment on MOLT-4 leukemia, 0.162 µM. For the same molecule, the GI50 in the experiment with SK-MEL-5 melanoma was 0.201 µM; with ACHN renal, 0.327 µM; in the experiment on NCI-H460 lung it was 0.115 µM; with HCT-15 colon, 0.0526 µM. The TGI with CAKI-1 renal is over 100 µM; in the experiment on SK-MEL-2 melanoma, over 100 µM; in the experiment with HS 578T breast, over 100 µM; in the experiment with EKVX NSCLC, over 100 µM; in the experiment with OVCAR-3 ovarian it was 0.317 µM; in the experiment with MOLT-4 leukemia, over 100 µM. Also, the TGI with SK-MEL-5 melanoma, in the experiment on ACHN renal, in the experiment on NCI-H460 lung and in the experiment with HCT-15 colon was over 100 µM each time.

For the molecule `S=C1SC2(CCCCCC2)NC2=C1CCCCC2`, the TGI in the experiment on CAKI-1 renal is over 100 µM; in the experiment on SK-MEL-2 melanoma it was 47.4 µM; with HS 578T breast, 47.6 µM; in the experiment with EKVX NSCLC, 44.2 µM; in the experiment with OVCAR-3 ovarian, over 100 µM; with MOLT-4 leukemia, 66.8 µM. Besides, the TGI is 43.2 µM in the experiment on SK-MEL-5 melanoma, over 100 µM with ACHN renal, 77.9 µM with NCI-H460 lung and over 100 µM with HCT-15 colon.

For the molecule `CC(=O)c1ccc(NCn2nc(-c3ccccc3O)oc2=S)cc1`, the GI50 in the experiment with CAKI-1 renal is over 100 µM; in the experiment with SK-MEL-2 melanoma, over 100 µM; with HS 578T breast, over 100 µM; in the experiment with EKVX NSCLC, over 100 µM; with OVCAR-3 ovarian, over 100 µM; in the experiment on MOLT-4 leukemia, 0.88 µM. The GI50 with SK-MEL-5 melanoma is 55.6 µM; with ACHN renal, 29.6 µM; with NCI-H460 lung, 39.5 µM; in the experiment on HCT-15 colon, 23.4 µM. Also, the TGI in the experiment with CAKI-1 renal, in the experiment with SK-MEL-2 melanoma, with HS 578T breast, with EKVX NSCLC, in the experiment on OVCAR-3 ovarian and in the experiment on MOLT-4 leukemia was over 100 µM in each case. The TGI in the experiment with SK-MEL-5 melanoma was over 100 µM; with ACHN renal, 71.9 µM; in the experiment on NCI-H460 lung, over 100 µM; in the experiment with HCT-15 colon, 49.3 µM.

Take `COc1ccc(S(=O)(=O)N2CCCCC2)cc1NC(=O)c1[nH]c(C)c2c1CCCCC2=O`: the GI50 in the experiment on CAKI-1 renal was 0.419 µM; in the experiment with SK-MEL-2 melanoma, 2.4 µM; in the experiment on HS 578T breast, 1.45 µM; in the experiment with EKVX NSCLC, 3.78 µM; in the experiment with OVCAR-3 ovarian it was 2.64 µM; in the experiment with MOLT-4 leukemia it was 4.31 µM. Besides, the GI50 was 1.4 µM with SK-MEL-5 melanoma, 2.34 µM in the experiment on ACHN renal, 4.01 µM with NCI-H460 lung and 1.15 µM in the experiment on HCT-15 colon. Also, the concentration for total growth inhibition (TGI) is 56.7 µM in the experiment on CAKI-1 renal; 31 µM with SK-MEL-2 melanoma; over 100 µM in the experiment with HS 578T breast; over 100 µM in the experiment with EKVX NSCLC; over 100 µM in the experiment on OVCAR-3 ovarian; over 100 µM in the experiment with MOLT-4 leukemia. Further, the concentration for total growth inhibition (TGI) in the experiment on SK-MEL-5 melanoma is 3.88 µM; in the experiment on ACHN renal, over 100 µM; in the experiment with NCI-H460 lung, over 100 µM; in the experiment on HCT-15 colon, over 100 µM.

`Cc1occc1C(=S)Nc1ccc(Cl)c(C(=O)OCC2CC2)c1`: the concentration for total growth inhibition (TGI) in the experiment with CAKI-1 renal, in the experiment on SK-MEL-2 melanoma, with HS 578T breast, in the experiment on EKVX NSCLC, in the experiment on OVCAR-3 ovarian and in the experiment on MOLT-4 leukemia was over 100 µM in each case. In addition, the TGI in the experiment with SK-MEL-5 melanoma, with ACHN renal, in the experiment on NCI-H460 lung and in the experiment with HCT-15 colon was over 100 µM throughout.

For the molecule `CN1CCN(c2ccc3nc(-c4ccc5nc(-c6ccc(C(F)(F)F)cc6)[nH]c5c4)[nH]c3c2)CC1`, the GI50 in the experiment on CAKI-1 renal is 2.97 µM; in the experiment with SK-MEL-2 melanoma, 1.87 µM; in the experiment on HS 578T breast it was 2.03 µM; in the experiment with EKVX NSCLC, 2.06 µM; with OVCAR-3 ovarian, 1.58 µM; in the experiment on MOLT-4 leukemia, 2.33 µM. Moreover, the GI50 in the experiment on SK-MEL-5 melanoma is 3.36 µM; in the experiment on ACHN renal it was 3.94 µM; in the experiment on NCI-H460 lung, 1.9 µM; in the experiment on HCT-15 colon, 7.48 µM. Besides, the TGI with CAKI-1 renal came to 15.7 µM; with SK-MEL-2 melanoma, 3.5 µM; with HS 578T breast, 4.49 µM; in the experiment with EKVX NSCLC it was 4.38 µM; with OVCAR-3 ovarian, 3.1 µM; with MOLT-4 leukemia, 4.96 µM. The TGI with SK-MEL-5 melanoma worked out at 15.5 µM; in the experiment with ACHN renal it was 17.7 µM; with NCI-H460 lung, 3.55 µM; in the experiment on HCT-15 colon it was 24.5 µM.

Turning to `C[C@]1(O)CC(=O)[C@]2(O)C3=C(C=C[C@]2(O)C1)C(=O)c1c(O)cccc1C3=O`, the GI50 with CAKI-1 renal is 1.5 µM; in the experiment on SK-MEL-2 melanoma it was 2.47 µM; with HS 578T breast, 2.74 µM; with EKVX NSCLC, 11.6 µM; with OVCAR-3 ovarian it was 1.23 µM; in the experiment with MOLT-4 leukemia, 1.12 µM. In addition, the GI50 in the experiment on SK-MEL-5 melanoma is 1.75 µM; with ACHN renal it was 0.5 µM; in the experiment with NCI-H460 lung, 5.15 µM; in the experiment with HCT-15 colon, 1.19 µM. Moreover, the TGI turned out to be 2.85 µM in the experiment with CAKI-1 renal; 5.56 µM in the experiment on SK-MEL-2 melanoma; 14.7 µM in the experiment on HS 578T breast; 23.8 µM in the experiment on EKVX NSCLC; 2.62 µM with OVCAR-3 ovarian; 3.98 µM with MOLT-4 leukemia. Besides, the TGI was 3.47 µM in the experiment with SK-MEL-5 melanoma, 1.73 µM in the experiment on ACHN renal, 23.8 µM in the experiment on NCI-H460 lung and 3.08 µM in the experiment on HCT-15 colon.

`CC(C)NCCCNC1=C(Cl)C(=O)c2ccccc2C1=O`: the GI50 is 5.83 µM with CAKI-1 renal; 13.5 µM in the experiment with SK-MEL-2 melanoma; 2.93 µM in the experiment on HS 578T breast; 1.4 µM in the experiment with EKVX NSCLC; 1.83 µM in the experiment on OVCAR-3 ovarian; 2.05 µM with MOLT-4 leukemia. For the same molecule, the GI50 with SK-MEL-5 melanoma is 1.54 µM; in the experiment with ACHN renal it was 12.6 µM; with NCI-H460 lung it was 3.96 µM; in the experiment with HCT-15 colon, 1.95 µM. Besides, the TGI in the experiment with CAKI-1 renal came to 20.9 µM; in the experiment on SK-MEL-2 melanoma, 30 µM; in the experiment on HS 578T breast, 9.02 µM; with EKVX NSCLC it was 2.83 µM; in the experiment with OVCAR-3 ovarian it was 3.58 µM; with MOLT-4 leukemia, 4.61 µM. Moreover, the TGI amounted to 2.88 µM with SK-MEL-5 melanoma, 25.8 µM with ACHN renal, 16.4 µM in the experiment on NCI-H460 lung and 3.96 µM in the experiment on HCT-15 colon.

Take `Cc1cc(C)c(S(=O)(=O)Oc2ccccc2[N+](=O)[O-])c(C)c1`: the GI50 is 0.956 µM in the experiment on CAKI-1 renal; 3.41 µM with SK-MEL-2 melanoma; 1.42 µM with HS 578T breast; 3.26 µM in the experiment with EKVX NSCLC; 1 µM in the experiment on OVCAR-3 ovarian; 1.39 µM in the experiment on MOLT-4 leukemia. The GI50 was 2 µM with SK-MEL-5 melanoma, 5.56 µM in the experiment on ACHN renal, 2.4 µM in the experiment on NCI-H460 lung and 1.37 µM with HCT-15 colon. Besides, the total growth inhibition concentration (TGI) was over 19.9 µM in the experiment on CAKI-1 renal; over 100 µM with SK-MEL-2 melanoma; 5.24 µM in the experiment with HS 578T breast; over 100 µM with EKVX NSCLC; 3.63 µM in the experiment on OVCAR-3 ovarian; over 100 µM in the experiment on MOLT-4 leukemia. The TGI in the experiment on SK-MEL-5 melanoma was 7.8 µM; in the experiment on ACHN renal, over 100 µM; with NCI-H460 lung, over 100 µM; in the experiment on HCT-15 colon it was over 100 µM.
